Test [1] in a line: Inhibition of PKA at 1 uM; values are per cent of control.
The target of test [2] is Tyrosine-protein kinase Fyn (Homo sapiens) (UniProt P06241). Kind of test: Inhibition of Fyn at 0.1 uM; values are per cent of control.
Test [3] has as its target T1, Ephrin type-A receptor 3 (Homo sapiens) (UniProt P29320).
T1 sequence (whole entry): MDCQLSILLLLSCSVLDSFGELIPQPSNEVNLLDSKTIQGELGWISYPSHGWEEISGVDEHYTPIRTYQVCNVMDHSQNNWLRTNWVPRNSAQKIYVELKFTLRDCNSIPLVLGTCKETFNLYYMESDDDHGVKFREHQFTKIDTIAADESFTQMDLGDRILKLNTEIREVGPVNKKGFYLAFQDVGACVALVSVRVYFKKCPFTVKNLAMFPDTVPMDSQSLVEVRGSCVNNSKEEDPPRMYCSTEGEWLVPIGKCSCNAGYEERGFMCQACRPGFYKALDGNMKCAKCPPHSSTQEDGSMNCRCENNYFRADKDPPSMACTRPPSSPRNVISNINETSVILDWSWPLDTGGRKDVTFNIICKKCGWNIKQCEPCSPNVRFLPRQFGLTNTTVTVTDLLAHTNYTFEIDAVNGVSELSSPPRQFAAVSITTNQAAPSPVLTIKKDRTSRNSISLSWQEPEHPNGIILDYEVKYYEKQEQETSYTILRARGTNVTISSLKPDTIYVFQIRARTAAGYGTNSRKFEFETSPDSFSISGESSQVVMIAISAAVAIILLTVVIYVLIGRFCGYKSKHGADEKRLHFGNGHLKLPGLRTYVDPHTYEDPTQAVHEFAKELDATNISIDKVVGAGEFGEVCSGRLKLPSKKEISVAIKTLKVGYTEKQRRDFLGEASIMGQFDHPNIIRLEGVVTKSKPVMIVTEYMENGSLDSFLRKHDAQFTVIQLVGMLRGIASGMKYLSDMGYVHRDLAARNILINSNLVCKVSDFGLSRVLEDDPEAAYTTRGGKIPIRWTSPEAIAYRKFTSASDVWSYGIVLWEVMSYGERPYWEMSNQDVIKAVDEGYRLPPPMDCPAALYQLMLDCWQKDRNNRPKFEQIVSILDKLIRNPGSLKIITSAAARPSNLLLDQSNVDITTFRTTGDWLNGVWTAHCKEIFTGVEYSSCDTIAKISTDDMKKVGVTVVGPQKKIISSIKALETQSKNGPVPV
The test can be described thus: Inhibition of EphA3 at 0.1 uM; values are per cent of control.

Test [4] has as its target Protein kinase C alpha type (Homo sapiens) (UniProt P17252). The test can be described thus: Inhibition of PKCalpha at 0.1 uM; values are per cent of control.
For test [5], the target named is Insulin receptor (Homo sapiens) (UniProt P06213). The test can be described thus: Inhibition of IR at 0.1 uM; values are per cent of control.
For test [6], the target named is Angiopoietin-1 receptor (Homo sapiens) (UniProt Q02763). Kind of test: Inhibition of Tie2 at 0.1 uM; values are per cent of control.
For test [7], the target named is Calcium/calmodulin-dependent protein kinase type 1 (Homo sapiens) (UniProt Q14012). The test can be described thus: Inhibition of CaMK1 at 1 uM; values are per cent of control.
The target in test [8] is T2, Serine/threonine-protein kinase Nek2 (Homo sapiens) (UniProt P51955).
T2 sequence (whole entry): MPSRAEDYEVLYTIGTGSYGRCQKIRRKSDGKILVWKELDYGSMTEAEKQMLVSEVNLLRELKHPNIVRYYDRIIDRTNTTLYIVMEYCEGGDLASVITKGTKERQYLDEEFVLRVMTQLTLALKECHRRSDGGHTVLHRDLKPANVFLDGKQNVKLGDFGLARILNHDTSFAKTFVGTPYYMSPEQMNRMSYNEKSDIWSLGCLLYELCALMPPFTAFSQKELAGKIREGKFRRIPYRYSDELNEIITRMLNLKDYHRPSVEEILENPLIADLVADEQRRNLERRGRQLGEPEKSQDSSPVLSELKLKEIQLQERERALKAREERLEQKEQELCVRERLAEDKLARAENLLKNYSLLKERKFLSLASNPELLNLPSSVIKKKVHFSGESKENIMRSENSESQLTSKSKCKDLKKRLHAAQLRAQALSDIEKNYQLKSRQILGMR
The test can be described thus: Inhibition of NEK2 at 1 uM; values are per cent of control.

The target in test [9] is Receptor-interacting serine/threonine-protein kinase 2 (Homo sapiens) (UniProt O43353). The test can be described thus: Inhibition of RIPK2 at 0.1 uM; values are per cent of control.
Test [10] concerns the target T3, Serine/threonine-protein kinase Sgk1 (Homo sapiens) (UniProt O00141).
T3 sequence (whole entry): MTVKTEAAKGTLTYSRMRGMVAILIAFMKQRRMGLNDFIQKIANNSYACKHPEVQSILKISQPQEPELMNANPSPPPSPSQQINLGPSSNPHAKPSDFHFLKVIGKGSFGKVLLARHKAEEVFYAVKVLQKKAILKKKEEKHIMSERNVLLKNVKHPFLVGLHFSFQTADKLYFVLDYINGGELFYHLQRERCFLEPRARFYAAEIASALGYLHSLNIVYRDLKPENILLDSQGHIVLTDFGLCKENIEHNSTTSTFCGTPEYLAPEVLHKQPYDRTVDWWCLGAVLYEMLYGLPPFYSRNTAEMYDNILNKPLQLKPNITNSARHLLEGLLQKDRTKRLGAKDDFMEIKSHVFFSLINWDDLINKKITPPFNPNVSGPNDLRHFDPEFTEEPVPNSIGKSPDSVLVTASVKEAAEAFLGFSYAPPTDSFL
The test can be described thus: Inhibition of SGK at 1 uM; values are per cent of control.

Test [11] deals with Ephrin type-A receptor 4 (Homo sapiens) (UniProt P54764). The test can be described thus: Inhibition of EphA4 at 0.1 uM; values are per cent of control.
The target of test [12] is Ephrin type-A receptor 2 (Homo sapiens) (UniProt P29317). Kind of test: Inhibition of EphA2 at 1 uM; values are per cent of control.
Test [13] concerns the target Tyrosine-protein kinase Fer (Homo sapiens) (UniProt P16591). The test can be described thus: Inhibition of Fer at 1 uM; values are per cent of control.

Sequence of Insulin receptor (Homo sapiens) (P06213 28-758 limits assumed): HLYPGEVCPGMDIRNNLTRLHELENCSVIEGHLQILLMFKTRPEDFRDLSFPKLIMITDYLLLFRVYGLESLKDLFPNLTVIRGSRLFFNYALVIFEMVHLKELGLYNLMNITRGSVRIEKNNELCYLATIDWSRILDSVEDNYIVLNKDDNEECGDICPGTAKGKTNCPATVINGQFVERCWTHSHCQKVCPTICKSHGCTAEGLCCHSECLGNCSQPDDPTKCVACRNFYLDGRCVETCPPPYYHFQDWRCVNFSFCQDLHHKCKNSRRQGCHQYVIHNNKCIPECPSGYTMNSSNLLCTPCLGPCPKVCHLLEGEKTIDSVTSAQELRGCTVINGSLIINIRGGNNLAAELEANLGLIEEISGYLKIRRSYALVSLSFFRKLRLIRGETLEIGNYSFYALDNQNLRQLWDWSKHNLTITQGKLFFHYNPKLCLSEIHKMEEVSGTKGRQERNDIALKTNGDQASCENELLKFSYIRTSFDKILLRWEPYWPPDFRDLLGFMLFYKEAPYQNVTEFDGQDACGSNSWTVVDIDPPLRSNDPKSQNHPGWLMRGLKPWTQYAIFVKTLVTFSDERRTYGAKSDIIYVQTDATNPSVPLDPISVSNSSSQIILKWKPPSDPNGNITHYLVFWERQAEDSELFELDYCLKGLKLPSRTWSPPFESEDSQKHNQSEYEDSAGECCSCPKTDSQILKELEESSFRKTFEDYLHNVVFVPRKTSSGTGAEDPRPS
Sequence of Insulin receptor (Homo sapiens) (P06213 763-1382 limits assumed): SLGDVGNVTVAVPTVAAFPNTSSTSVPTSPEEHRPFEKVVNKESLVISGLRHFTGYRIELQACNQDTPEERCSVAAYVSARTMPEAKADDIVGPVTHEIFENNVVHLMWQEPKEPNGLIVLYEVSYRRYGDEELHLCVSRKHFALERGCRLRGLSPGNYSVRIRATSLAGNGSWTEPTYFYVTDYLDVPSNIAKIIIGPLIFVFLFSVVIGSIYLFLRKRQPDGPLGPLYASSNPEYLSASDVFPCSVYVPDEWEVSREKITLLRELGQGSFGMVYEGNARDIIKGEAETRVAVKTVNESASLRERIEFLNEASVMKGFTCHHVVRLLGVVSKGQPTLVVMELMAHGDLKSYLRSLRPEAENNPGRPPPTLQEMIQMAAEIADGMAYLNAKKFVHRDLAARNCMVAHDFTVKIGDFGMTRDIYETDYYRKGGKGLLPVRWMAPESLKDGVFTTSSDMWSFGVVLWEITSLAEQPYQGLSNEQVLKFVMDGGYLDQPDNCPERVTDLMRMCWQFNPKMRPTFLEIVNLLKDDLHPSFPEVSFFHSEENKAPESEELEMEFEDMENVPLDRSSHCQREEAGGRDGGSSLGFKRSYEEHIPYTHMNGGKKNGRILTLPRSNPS
Sequence of Tyrosine-protein kinase Fer (Homo sapiens) (P16591 whole entry, looked up): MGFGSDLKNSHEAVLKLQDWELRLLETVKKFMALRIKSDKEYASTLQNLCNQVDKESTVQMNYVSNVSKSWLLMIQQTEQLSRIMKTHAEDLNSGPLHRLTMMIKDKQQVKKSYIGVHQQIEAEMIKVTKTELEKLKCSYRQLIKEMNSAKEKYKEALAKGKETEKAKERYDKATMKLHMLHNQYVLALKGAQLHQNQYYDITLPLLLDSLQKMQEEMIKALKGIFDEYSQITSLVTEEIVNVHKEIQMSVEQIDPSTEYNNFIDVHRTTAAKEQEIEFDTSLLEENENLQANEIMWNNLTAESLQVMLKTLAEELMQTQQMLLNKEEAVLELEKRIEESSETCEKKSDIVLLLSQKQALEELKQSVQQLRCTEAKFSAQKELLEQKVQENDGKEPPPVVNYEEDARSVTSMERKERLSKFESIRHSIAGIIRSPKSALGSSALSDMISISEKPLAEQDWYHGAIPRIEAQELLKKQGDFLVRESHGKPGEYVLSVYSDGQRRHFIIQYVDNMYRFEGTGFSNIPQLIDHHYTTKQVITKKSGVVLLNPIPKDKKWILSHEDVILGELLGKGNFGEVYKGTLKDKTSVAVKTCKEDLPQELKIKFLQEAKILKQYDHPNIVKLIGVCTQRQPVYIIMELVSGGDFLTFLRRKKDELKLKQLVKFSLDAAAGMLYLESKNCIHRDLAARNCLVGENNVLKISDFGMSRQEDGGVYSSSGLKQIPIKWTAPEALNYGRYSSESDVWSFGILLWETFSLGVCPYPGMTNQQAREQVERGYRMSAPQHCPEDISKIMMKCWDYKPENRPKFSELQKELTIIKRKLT
Sequence of Ephrin type-A receptor 2 (Homo sapiens) (P29317 whole entry): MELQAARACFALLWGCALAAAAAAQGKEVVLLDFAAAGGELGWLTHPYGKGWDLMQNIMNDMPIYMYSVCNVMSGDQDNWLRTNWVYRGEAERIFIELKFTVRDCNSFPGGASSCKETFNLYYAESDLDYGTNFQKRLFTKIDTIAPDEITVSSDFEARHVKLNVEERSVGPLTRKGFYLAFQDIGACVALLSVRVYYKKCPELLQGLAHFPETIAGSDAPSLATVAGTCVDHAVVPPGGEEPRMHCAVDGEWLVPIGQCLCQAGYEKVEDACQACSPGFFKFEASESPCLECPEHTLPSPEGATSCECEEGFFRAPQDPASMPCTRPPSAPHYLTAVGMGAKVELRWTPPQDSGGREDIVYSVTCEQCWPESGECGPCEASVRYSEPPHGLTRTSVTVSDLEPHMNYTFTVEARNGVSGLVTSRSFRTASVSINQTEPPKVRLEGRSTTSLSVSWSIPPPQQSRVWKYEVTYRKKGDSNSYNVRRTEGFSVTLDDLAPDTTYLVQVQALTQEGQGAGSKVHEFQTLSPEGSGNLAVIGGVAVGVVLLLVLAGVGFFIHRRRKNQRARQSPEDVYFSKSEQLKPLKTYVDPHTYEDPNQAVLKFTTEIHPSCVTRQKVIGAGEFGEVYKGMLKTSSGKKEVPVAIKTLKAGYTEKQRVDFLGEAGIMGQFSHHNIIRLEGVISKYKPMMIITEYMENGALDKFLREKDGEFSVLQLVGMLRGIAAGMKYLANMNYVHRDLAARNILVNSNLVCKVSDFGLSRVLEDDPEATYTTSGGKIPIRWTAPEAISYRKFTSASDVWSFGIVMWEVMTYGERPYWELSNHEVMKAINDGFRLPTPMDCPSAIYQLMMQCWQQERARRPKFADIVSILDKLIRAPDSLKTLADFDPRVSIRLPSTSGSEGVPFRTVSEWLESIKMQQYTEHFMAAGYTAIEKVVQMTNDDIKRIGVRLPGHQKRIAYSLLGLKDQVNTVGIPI
Sequence of Tyrosine-protein kinase Fyn (Homo sapiens) (P06241 2-537 limits assumed): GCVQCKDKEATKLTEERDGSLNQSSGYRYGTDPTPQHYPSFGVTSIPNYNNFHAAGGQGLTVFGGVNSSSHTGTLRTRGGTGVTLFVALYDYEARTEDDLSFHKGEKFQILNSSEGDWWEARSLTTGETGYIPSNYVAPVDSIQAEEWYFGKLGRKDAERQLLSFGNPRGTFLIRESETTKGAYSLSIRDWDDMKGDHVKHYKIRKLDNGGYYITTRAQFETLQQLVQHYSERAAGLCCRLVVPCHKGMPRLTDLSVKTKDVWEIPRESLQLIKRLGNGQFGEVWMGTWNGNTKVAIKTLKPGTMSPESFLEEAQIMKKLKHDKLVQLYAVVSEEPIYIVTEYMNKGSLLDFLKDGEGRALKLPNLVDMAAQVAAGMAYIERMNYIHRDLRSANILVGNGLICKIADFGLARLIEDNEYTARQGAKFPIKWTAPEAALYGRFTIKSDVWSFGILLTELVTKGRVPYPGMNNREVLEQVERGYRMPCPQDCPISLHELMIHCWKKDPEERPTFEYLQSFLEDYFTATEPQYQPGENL
Sequence of Receptor-interacting serine/threonine-protein kinase 2 (Homo sapiens) (O43353 whole entry): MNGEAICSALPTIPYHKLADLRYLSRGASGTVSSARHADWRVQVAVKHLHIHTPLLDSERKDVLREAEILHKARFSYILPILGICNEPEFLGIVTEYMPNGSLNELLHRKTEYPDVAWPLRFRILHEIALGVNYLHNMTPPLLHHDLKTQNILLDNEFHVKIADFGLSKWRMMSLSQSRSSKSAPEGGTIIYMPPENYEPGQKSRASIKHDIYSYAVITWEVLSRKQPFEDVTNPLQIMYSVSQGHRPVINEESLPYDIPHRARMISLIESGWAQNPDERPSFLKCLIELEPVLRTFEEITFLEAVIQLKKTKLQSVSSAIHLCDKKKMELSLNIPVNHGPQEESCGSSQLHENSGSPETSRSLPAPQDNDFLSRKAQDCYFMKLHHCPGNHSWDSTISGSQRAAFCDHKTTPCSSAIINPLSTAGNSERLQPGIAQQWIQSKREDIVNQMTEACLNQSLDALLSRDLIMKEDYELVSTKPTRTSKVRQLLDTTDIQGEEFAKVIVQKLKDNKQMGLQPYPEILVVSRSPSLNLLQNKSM

As a reminder, the residual activity is what remains of the control signal, in per cent. As to `Cc1ccc2cc(-c3n[nH]c4ccc(NC5CCNC5)cc34)[nH]c2c1` (stereo unspecified), the residual activity in [1] was 6%; in test [2], 1%; in test [3] it was 89%; in test [4], 85%; in test [5] it was 93%; in [6] it was 17%. Moreover, the residual activity in [7] came out at 24%; in [8], 36%; in test [9], 87%; in test [10], 32%; in [11] it was 98%; in test [12] it was 13%. Moreover, in [13], the residual activity turned out to be 2%.

For `Cc1ccc2cc(-c3n[nH]c4ccc(NC5CCN(Cc6ccccc6)CC5)cc34)[nH]c2c1`, the residual activity in [1] was found to be 5%; in test [2], 30%; in [3], 81%; in [4], 77%; in test [5], 93%; in test [6] it was 83%. In addition, the residual activity in test [7] amounted to 78%; in test [8] it was 68%; in test [9], 94%; in test [10], 97%; in test [11], 99%; in test [12], 7%. The residual activity in test [13] came to 3%.

(Values after ChEMBL document CHEMBL1681705, “Optimisation of ITK inhibitors through successive iterative design cycles” (Bioorg Med Chem Lett, 2011).)
